Patent US12692274B2, “Tetrahydroisoquinoline derivatives for the treatment of red blood disorders and inflammatory diseases” (Sanofi, priority 2020, dated 2026)

Key:
[1] = tested on: NQO1 activation in BEAS-2B cells; test: BEAS-2B cellular MTT assay of NQO1 activation, 0% HSA; format: cell-based; settings: serum free, read-out: BEAS EC50 (nM) serum free
Experimental: (§1) The growth rate of the BEAS-2B cells changed based on the lot of BEGM SingleQuots in the BEGM media. The cell growth rate was determined for each lot of SingleQuots. Ideally, cells were thawed into media with the new lot of SingleQuots and grown for two passages before testing; however, growing an active culture in the new lot of media for two to three passages before testing was also acceptable. Until the cell growth rate was determined, cells were seeded at different densities (cells/cm^2) in multiple tissue culture flasks in order to avoid the cells becoming more than 70% confluent. Cells should not go above 70% confluent as the cells differentiate when they become confluent. After the cells were grown in the new lot of media as described above, the number of cells per well needed to seed in the collagen plates was determined by seeding different numbers of cells per well and incubating for 48 hours. Cell confluency was checked after 48 hours and a cell number that results in just below to just above confluency was chosen for future plate seeding. Cell confluency in the assay plate was 95-100% confluent after 48 hours.
(§2) Cell media consists of BEBM basal media with the BEGM SingleQuots added. SingleQuots vials were thawed in the tissue culture hood, and GA-1000 (Gentamicin-Amphotericin) was not added.
(§3) If complete media was to be used immediately, BEBM basal media was warmed to room temperature in the hood, but not as high as 37° C. When the media was made for future use, SingleQuots were added to cold BEBM. One at a time, the SingleQuots components (except GA-1000) were added to the BEBM media. After removal of each component from the vial, the vial was rinsed with 0.5-1 mL of BEBM (depending on the volume the vial could hold) and added to the bottle of BEBM. Once all components were added, the label that comes with the SingleQuots kit was put on the bottle of media and the date was recorded. The bottle of media was mixed by gentle shaking. The media was not filtered. This media was stored at 4° C., with any leftover media disposed of one month after the date the SingleQuots were added.
(§4) BEAS-2B Cell Splitting Protocol:
(§5) First, Trypsin was warmed to 37° C. in the water bath. The media was then warmed to room temperature by letting it sit in the tissue culture hood, but not as high as 37° C. The media was aspirated from flask(s) and the flask(s) were washed with PBS. From 1 to 1.5 mL of warm trypsin were added to each flask and incubated at 37° C. until cells came off the flask on their own (~8-10 minutes), with no vigorous tapping on the flask to detach the cells.
(§6) Media was added to each flask to a total volume of 8-10 mL per flask and transferred to 15 mL conical tube(s). The cells were spun down at 120 g for 5 minutes, level 5 brake. The cells can be spun down between 100 and 150 g. Next the media was aspirated and the cell pellet was resuspended in fresh media by pipetting up and down and flicking the tube side to side. Any clumps of cells that remained were allowed to settle to the bottom of the tube before the top suspension was transferred into another tube, leaving about 1 mL of media in the original tube. The 1 mL of media and cell clumps were mixed with a single channel p1000 pipette, and any remaining clumps were removed before adding the cells in suspension to the other tube. The suspension was mixed with a pipette, an aliquot was removed, and the cells were counted. The amount of cells/cm^2 desired was calculated and the required volume of cells was added to tissue culture flasks. For example, use of SingleQuots with ~6000 cells/cm^2 was appropriate for a three day incubation and ~3000 cells/cm^2 for a five day incubation. Optimal cell density differed depending on lot of SingleQuots. The flasks were incubated at 37° C. in 5% CO2.
(§7) Day One: Seeding BEAS-2B Cells in Collagen Plates:
(§8) Plate(s) were either seeded with 0.3% or 0% HSA. While the protocol was similar for both conditions any differences are noted herein below. […]

[2] = tested on: NQO1 activation in BEAS-2B cells; test: BEAS-2B cellular MTT assay of NQO1 activation, 0.3% HSA; format: cell-based; settings: BEAS+, read-out: BEAS+ EC50
Experimental: as §1, §2, §3, §4, §5, §6, §7, §8

Compound | EC50 ([1]; Homo sapiens) [nM] | EC50 ([2]; Homo sapiens) [nM] | EC50 [1] [nM] | EC50 [2] [nM]
Cc1c2ccc3c1nnn3CCCCCCOc1ccc(c(F)c1)C(=O)N1CCc3ccc(cc3C1)[C@H]2[C@@H](C)C(=O)O [Compound 152] | > 10000 | > 10000 |  | 
Cc1c2ccc3c1nnn3CCCCCCOc1ccc(c(F)c1)C(=O)N1CCc3ccc(cc3C1)[C@H]2[C@H](C)C(=O)O [Compound 156] | 55.9 | 201 | 44.3 | 171
Cc1c2ccc3c1nnn3CCCCCc1ccc(cc1)C(=O)N1CCc3ccc(cc3C1)[C@@H]2[C@H](C)C(=O)O [Compound 160] | 9.4 | 12.4 | 7 | 13.2
Cc1c2ccc3c1nnn3CCCCCCc1ccc(cc1)C(=O)N1CCc3ccc(cc3C1)[C@@H]2[C@@H](C)C(=O)O [Compound 176] | 0.5 | 0.1 | 0.8 | 0.2
Cc1c2ccc3c1nnn3CCCCCCOc1ccc(c(F)c1)C(=O)N1CCc3ccc(cc3C1)[C@@H]2[C@H](C)C(=O)O [Compound 177] | 43.7 | 107 | 36.1 | 140
Cc1c2ccc3c1nnn3CCCCCCOc1ccc(c(F)c1)C(=O)N1CCc3ccc(cc3C1)[C@@H]2[C@@H](C)C(=O)O [Compound 181] | 3.6 | 5.3 | 3.4 | 6.6
COc1cc2ccc1C(=O)N1CCc3ccc(cc3C1)C(CC(=O)O)c1ccc3c(nnn3CCCCCC2)c1C (stereo not drawn) [Compound 188] | 9.4 | 15.3 | 9.1 | 14.9
Cc1cc2ccc1C(=O)N1CCc3ccc(cc3C1)[C@H](CC(=O)O)c1ccc3c(nnn3CCCCCC2)c1C [Compound 245] | 19.4 | 24.8 | 18.5 | 37.6
Cc1c2ccc3c1nnn3CCCCCCOc1ccc(c(F)c1)C(=O)N1CCc3ccc(cc3C1)[C@H]2CC(=O)O [Compound 255] | 4.8 | 288 | 4 | 289
Cc1c2ccc3c1nnn3CCCCCCOc1ccc(c(F)c1)C(=O)N1CCc3ccc(cc3C1)[C@@H]2CC(=O)O [Compound 257] | 7.4 | 228 | 4.3 | 146
CC(C)(C(=O)O)C1c2ccc3c(c2)CN(CC3)C(=O)c2ccc(cc2)OCCCCCCn2nnc3cc1ccc32 (stereo not drawn) [Compound 287] | 3.1 | 112 |  | 
Cc1cc2ccc1C(=O)N1CCc3ccc(cc3C1)C(CC(=O)O)c1ccc3c(nnn3CCCCCC2)c1C (stereo not drawn) [Compound 295] | 0.2 | 0.7 |  | 
Cc1c2ccc3c1nnn3CCCCCCOc1ccc(c(F)c1)C(=O)N1CCc3ccc(cc3C1)C2CC(=O)O (stereo not drawn) [Compound 317] | 0.6 | 11.9 |  | 
O=C(O)CC1c2ccc3c(c2)CN(CC3)C(=O)c2ccc(cc2)OCCCCCCn2nnc3cc1ccc32 (stereo not drawn) [Compound 329] | 403 | 1230 |  | 
Cc1cc2ccc1C(=O)N1CCc3ccc(cc3C1)C(CC(=O)O)c1ccc3c(c1)nnn3CCCCCO2 (stereo not drawn) [Compound 330] | 1070 | 862 |  | 
O=C(O)CC1c2ccc3c(c2)CN(CC3)C(=O)c2ccc(cc2)OCCCCCn2nnc3cc1ccc32 (stereo not drawn) [Compound 334] | 547 | 898 |  | 
Cc1c2ccc3c1nnn3CCOCCCOc1ccc(c(F)c1)C(=O)N1CCc3ccc(cc3C1)C2CC(=O)O (stereo not drawn) [Compound 382] | 86.2 | 169 | 125 | 136
